Experiments:
[1] = Protection against hepatic intoxication by CCl4 and cold, Compound A (BSF in blood); format: in vivo; conditions: 500 mg/kg simultaneously with CCl4; 5 h at 4° C.
Procedure: Oral administration of 5 ml/kg of a 20% solution of CCl4 in oil was followed by exposure for 5 hours to a temperature of 4° C. 500 Mg/kg of the Compound A of the invention were administered simultaneously with the CCl4. The BSF was tested in the blood. An average of 20 animals were used per group, and relative to the controls there was a reduction of 16%.

[2] = Vasodilator activity (vasodilation of the ocular conjunctiva in guinea pigs); format: in vivo, guinea pig
[3] = Toxicology, oral treatment of mice for 180 days, Compound A; format: in vivo, mouse; conditions: 200 mg/kg orally
[4] = Choleretic activity in cannulated rats; format: in vivo, rat
Procedure: Rats were fitted with a cannula, the bile volume was measured after the first hour, they were then treated with a test compound and the bile volume was measure after the second hour, so as to determine the percentage change. The various compounds were administered intravenously at a dose of 100 mg/kg.

[5] = Antilipemic action, Morris or Handler diet, Compound A; format: in vivo, Wistar rat; conditions: for Bile BSF excretion, percentage change vs controls / Serum beta-lipoproteins, percentage change vs controls / Serum total cholesterol, percentage change vs controls / Serum total lipids, percentage change vs controls: 50 days, 200 mg/kg orally
Procedure: Wistar rats were treated for 50 days with a Morris diet or a Handler diet. Simultaneously with the diet they received 200 mg/kg of Compound A or of choline orally every day. The controls only received the diet. The following were examined at the end of the treatment: (a) total cholesterol, total lipids and beta-lipoproteins in the serum, (b) BSF excretion in the bile.

[6] = 100 mg/kg i.v., given after first hour

O=C(OCCN(CCS(=O)(=O)O)C(=O)c1cccnc1)c1cccnc1 [Compound A, N-nicotinoyl-N-(2-nicotinoyloxy)ethyltaurine]
Reduction of BSF in the blood relative to controls [1]: 16% | Vasodilator effect: duration ([2]; 0.1 mg/kg endoperitoneal): 0 min | Vasodilator effect: positive response ([2]; 0.1 mg/kg endoperitoneal): 0% | Vasodilator effect: duration ([2]; 1.0 mg/kg endoperitoneal): 120 min | Vasodilator effect: positive response ([2]; 1.0 mg/kg endoperitoneal): 80% | Vasodilator effect: time of appearance ([2]; 1.0 mg/kg endoperitoneal): 90 s | Vasodilator effect: duration ([2]; 10.0 mg/kg endoperitoneal): 120 min | Vasodilator effect: positive response ([2]; 10.0 mg/kg endoperitoneal): 100% | Vasodilator effect: time of appearance ([2]; 10.0 mg/kg endoperitoneal): 96 s | Vasodilator activity (in words) ([2]; endoperitoneal): better activity than the 3-pyridylcarbinol compound | Mortality [3]: no mortality | Bile dry residue change ([4]; 100 mg/kg i.v.): +40.0% | Bile volume change ([4]; 100 mg/kg i.v.): +52.0% | Choleretic activity (in words) ([4]; 100 mg/kg i.v.): appearance of choleretic activity | Bile dry residue after 2 h [4, 6]: 35.3 mg/h | Bile volume after 2 h [4, 6]: 1.14 mL/h | Bile dry residue after 1 h ([4]; before treatment (first hour)): 25.7 mg/h | Bile volume after 1 h ([4]; before treatment (first hour)): 0.75 mL/h | Bile BSF excretion, percentage change vs controls ([5]; Handler diet): +36.0% | Serum beta-lipoproteins, percentage change vs controls ([5]; Handler diet): -28.9% | Serum total cholesterol, percentage change vs controls ([5]; Handler diet): -26.9% | Serum total lipids, percentage change vs controls ([5]; Handler diet): -19.6% | Bile BSF excretion, percentage change vs controls ([5]; Morris diet): +23.5% | Serum beta-lipoproteins, percentage change vs controls ([5]; Morris diet): -34.3% | Serum total cholesterol, percentage change vs controls ([5]; Morris diet): -14.3% | Serum total lipids, percentage change vs controls ([5]; Morris diet): -17.0% | Oral absorption (deduced from diet tests) ([5]; oral, Morris and Handler diets): absorbed orally
